Measured values published in patent US10584128B2, “Bicyclic dihydropyrimidine-carboxamide derivatives as Rho-Kinase inhibitors” (CHIESI FARMACEUTICI S.p.A., priority 2016, dated 2020).

Legend:
Rho kinase 1 = Rho kinase 1 (Homo sapiens, UniProt Q13464); experiment: In vitro Rho kinase inhibitory activity assay (ADP-Glo kit, Myelin Basic Protein substrate); type: biochemical; settings: 10 μM ATP, 25° C., read-out: ROCK1 inhibitory activity (Ki, range of activity)
Method in brief: (§1)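 Human ROCK1 or ROCK2 was preincubated with compound for 30 min at 25 °C in 40 mM Tris pH7.5, 20 mM MgCl2, 0.1 mg/ml BSA, 50 μM DTT, 2.5 μM Myelin Basic Protein, 1% DMSO final. Reactions ran 1 hour with 10 μM ATP final; ADP-Glo luminescence gave IC50 by sigmoidal fit, Ki by Cheng-Prusoff.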

Rho kinase 2 = Rho kinase 2 (Homo sapiens, UniProt O75116); experiment: as above; type: biochemical; settings: 10 μM ATP, 25° C., read-out: ROCK2 inhibitory activity (Ki, range of activity)
Sequence of Rho kinase 2 (O75116 whole entry): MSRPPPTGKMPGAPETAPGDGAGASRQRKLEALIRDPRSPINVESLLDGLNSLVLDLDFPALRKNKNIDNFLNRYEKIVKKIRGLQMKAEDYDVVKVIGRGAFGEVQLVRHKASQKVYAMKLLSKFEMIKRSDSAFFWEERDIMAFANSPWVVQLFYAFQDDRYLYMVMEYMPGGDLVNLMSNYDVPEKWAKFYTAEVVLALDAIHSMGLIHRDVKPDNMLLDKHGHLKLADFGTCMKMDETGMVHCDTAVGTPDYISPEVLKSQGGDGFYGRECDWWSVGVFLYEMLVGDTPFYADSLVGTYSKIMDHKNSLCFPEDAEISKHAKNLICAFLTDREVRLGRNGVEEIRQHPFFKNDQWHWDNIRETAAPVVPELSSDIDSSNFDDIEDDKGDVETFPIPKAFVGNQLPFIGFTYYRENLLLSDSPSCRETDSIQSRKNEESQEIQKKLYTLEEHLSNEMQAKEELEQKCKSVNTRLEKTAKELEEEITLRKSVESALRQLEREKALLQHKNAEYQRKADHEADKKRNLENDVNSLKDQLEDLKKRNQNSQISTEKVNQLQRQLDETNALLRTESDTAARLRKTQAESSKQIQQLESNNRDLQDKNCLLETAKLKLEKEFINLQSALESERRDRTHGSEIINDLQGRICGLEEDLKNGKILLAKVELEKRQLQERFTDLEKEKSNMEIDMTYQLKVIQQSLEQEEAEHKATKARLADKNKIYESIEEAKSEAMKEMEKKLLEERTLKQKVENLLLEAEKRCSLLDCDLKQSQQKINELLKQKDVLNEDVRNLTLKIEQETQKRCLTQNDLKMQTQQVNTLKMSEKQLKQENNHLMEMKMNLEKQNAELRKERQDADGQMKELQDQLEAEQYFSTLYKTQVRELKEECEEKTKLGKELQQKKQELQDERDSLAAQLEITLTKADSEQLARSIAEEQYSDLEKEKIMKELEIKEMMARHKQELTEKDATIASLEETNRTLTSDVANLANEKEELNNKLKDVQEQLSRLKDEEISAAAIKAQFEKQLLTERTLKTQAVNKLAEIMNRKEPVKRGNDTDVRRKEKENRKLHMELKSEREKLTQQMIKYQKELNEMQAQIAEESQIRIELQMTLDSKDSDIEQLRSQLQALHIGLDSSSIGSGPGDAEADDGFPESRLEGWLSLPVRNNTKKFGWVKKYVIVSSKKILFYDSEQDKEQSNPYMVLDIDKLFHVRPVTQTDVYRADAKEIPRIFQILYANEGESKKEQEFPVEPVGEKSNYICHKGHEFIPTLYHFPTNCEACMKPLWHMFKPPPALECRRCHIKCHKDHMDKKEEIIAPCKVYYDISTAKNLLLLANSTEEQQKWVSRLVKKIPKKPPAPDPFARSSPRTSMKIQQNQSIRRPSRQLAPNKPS
Method in brief: as §1

Sequence of Rho kinase 1 (Q13464 whole entry): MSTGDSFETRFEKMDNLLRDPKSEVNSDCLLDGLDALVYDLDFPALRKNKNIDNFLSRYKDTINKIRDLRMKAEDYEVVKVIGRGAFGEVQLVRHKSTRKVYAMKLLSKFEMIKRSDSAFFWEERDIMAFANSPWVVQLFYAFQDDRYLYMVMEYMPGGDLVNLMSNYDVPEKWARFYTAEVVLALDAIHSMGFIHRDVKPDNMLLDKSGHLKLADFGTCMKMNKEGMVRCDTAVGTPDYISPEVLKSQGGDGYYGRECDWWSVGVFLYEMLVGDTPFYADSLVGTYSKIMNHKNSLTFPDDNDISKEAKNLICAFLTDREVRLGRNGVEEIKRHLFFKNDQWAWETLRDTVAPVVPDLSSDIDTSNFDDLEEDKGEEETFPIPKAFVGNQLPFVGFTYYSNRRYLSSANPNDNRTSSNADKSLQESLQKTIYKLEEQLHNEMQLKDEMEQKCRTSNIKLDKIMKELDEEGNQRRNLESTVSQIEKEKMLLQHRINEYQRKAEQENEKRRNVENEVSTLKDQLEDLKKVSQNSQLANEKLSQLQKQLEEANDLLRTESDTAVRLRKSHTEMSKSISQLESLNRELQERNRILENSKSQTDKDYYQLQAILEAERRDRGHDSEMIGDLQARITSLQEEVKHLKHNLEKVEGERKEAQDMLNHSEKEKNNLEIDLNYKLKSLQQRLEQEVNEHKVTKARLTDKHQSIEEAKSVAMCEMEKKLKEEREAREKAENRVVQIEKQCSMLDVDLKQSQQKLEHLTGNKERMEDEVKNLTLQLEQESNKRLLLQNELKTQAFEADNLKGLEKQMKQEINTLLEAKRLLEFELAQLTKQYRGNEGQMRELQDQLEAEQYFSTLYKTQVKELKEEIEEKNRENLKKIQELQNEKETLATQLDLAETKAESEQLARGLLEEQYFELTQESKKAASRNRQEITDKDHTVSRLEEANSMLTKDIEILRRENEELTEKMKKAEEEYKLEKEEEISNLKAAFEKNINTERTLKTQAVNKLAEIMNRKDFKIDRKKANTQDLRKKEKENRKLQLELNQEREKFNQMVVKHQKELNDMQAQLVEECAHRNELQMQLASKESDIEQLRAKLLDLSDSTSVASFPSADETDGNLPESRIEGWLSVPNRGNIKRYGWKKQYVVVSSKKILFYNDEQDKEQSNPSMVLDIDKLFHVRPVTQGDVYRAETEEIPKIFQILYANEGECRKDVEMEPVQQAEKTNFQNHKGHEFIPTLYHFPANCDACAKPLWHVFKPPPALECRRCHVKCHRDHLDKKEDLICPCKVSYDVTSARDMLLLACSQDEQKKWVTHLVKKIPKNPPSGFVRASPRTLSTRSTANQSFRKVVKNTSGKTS

| Ki (Rho kinase 1) [nM] | Ki (Rho kinase 2) [nM] | SMILES |
| --- | --- | --- |
| < 50 | < 50 | CC1=C(C(=O)Nc2ccc3cnccc3c2)C(C2Cc3ccccc3C2)n2nc(CN(C)C)cc2N1 (centres unmarked) [Example 124, 7-(2,3-dihydro-1H-inden-2-yl)-2-((dimethylamino)methyl)-N-(isoquinolin-6-yl)-5-methyl-4,7-dihydropyrazolo[1,5-a]pyrimidine-6-carboxamide] |
| < 50 | < 50 | CC1=C(C(=O)Nc2ccc3cnccc3c2)C(c2ccc(C(F)(F)F)c(F)c2)n2nc(C(=O)NC3CC3)cc2N1 (centres unmarked) [Example 125, N2-cyclopropyl-7-(3-fluoro-4-(trifluoromethyl)phenyl)-N6-(isoquinolin-6-yl)-5-methyl-4,7-dihydropyrazolo[1,5-a]pyrimidine-2,6-dicarboxamide] |
| < 50 | < 50 | CC1=C(C(=O)Nc2ccc3cnccc3c2)C(c2ccc(C(F)(F)F)c(F)c2)n2nc(C(=O)N(C)C)cc2N1 (centres unmarked) [Example 126, 7-(3-fluoro-4-(trifluoromethyl)phenyl)-N6-(isoquinolin-6-yl)-N2,N2,5-trimethyl-4,7-dihydropyrazolo[1,5-a]pyrimidine-2,6-dicarboxamide] |
| < 50 | < 50 | CC1=C(C(=O)Nc2ccc3cnccc3c2)C(c2ccc(C(F)(F)F)c(F)c2)n2nc(C(=O)NCCC(=O)N3CCCC3)cc2N1 (centres unmarked) [Example 127, 7-(3-fluoro-4-(trifluoromethyl)phenyl)-N6-(isoquinolin-6-yl)-5-methyl-N2-(3-oxo-3-(pyrrolidin-1-yl)propyl)-4,7-dihydropyrazolo[1,5-a]pyrimidine-2,6-dicarboxamide] |
| < 50 | < 50 | CC1=C(C(=O)Nc2ccc3cnccc3c2)C(c2ccc(C(F)(F)F)c(F)c2)n2nc(C(=O)NC3CC(F)(F)C3)cc2N1 (centres unmarked) [Example 128, N2-(3,3-difluorocyclobutyl)-7-(3-fluoro-4-(trifluoromethyl)phenyl)-N6-(isoquinolin-6-yl)-5-methyl-4,7-dihydropyrazolo[1,5-a]pyrimidine-2,6-dicarboxamide] |
| < 50 | < 50 | CC1=C(C(=O)Nc2ccc3cnccc3c2)C(c2ccc(C(F)(F)F)c(F)c2)n2nc(C(=O)NCCN3CCCCC3)nc2N1 (centres unmarked) [Example 129, 7-(3-fluoro-4-(trifluoromethyl)phenyl)-N6-(isoquinolin-6-yl)-5-methyl-N2-(2-(piperidin-1-yl)ethyl)-4,7-dihydro-[1,2,4]triazolo[1,5-a]pyrimidine-2,6-dicarboxamide] |
| < 50 | < 50 | CC1=C(C(=O)Nc2ccc3cnccc3c2)C(c2ccc(C(F)(F)F)c(F)c2)n2nc(N)cc2N1 (centres unmarked) [Example 130, 2-Amino-7-(3-fluoro-4-(trifluoromethyl)phenyl)-N-(isoquinolin-6-yl)-5-methyl-4,7-dihydropyrazolo[1,5-a]pyrimidine-6-carboxamide] |
| < 50 | < 50 | CC1=C(C(=O)Nc2ccc3cnccc3c2)C(c2ccc(C(F)(F)F)c(F)c2)n2nc(NC(=O)CCN3CCCCC3)cc2N1 (centres unmarked) [Example 131, 7-(3-Fluoro-4-(trifluoromethyl)phenyl)-N-(isoquinolin-6-yl)-5-methyl-2-(3-(piperidin-1-yl)propanamido)-4,7-dihydropyrazolo[1,5-a]pyrimidine-6-carboxamide] |
| < 50 | < 50 | CC1=C(C(=O)Nc2ccc3cnccc3c2)C(c2ccc(C(F)(F)F)c(F)c2)n2nc(NC(=O)CN3CCCC3)cc2N1 (centres unmarked) [Example 132, 7-(3-fluoro-4-(trifluoromethyl)phenyl)-N-(isoquinolin-6-yl)-5-methyl-2-(2-(pyrrolidin-1-yl)acetamido)-4,7-dihydropyrazolo[1,5-a]pyrimidine-6-carboxamide] |
| < 50 | < 50 | CC1=C(C(=O)Nc2ccc3cnccc3c2)C(c2ccc(C(F)(F)F)c(F)c2)n2nc(NC(=O)COC3CCN(C)CC3)cc2N1 (centres unmarked) [Example 133, 7-(3-fluoro-4-(trifluoromethyl)phenyl)-N-(isoquinolin-6-yl)-5-methyl-2-(2-((1-methylpiperidin-4-yl)oxy)acetamido)-4,7-dihydropyrazolo[1,5-a]pyrimidine-6-carboxamide] |
| < 50 | < 50 | CC1=C(C(=O)Nc2ccc3cnccc3c2)C(c2ccc(C)c(F)c2)n2nc(NC(=O)CN3CCCC3)cc2N1 (centres unmarked) [Example 134, 7-(3-fluoro-4-methylphenyl)-N-(isoquinolin-6-yl)-5-methyl-2-(2-(pyrrolidin-1-yl)acetamido)-4,7-dihydropyrazolo[1,5-a]pyrimidine-6-carboxamide] |
| < 50 | < 50 | CC1=C(C(=O)Nc2ccc3cnccc3c2)C(c2ccc(C(F)(F)F)c(F)c2)n2nc(C3CCN(C(=O)CCN4CCCCC4)CC3)cc2N1 (centres unmarked) [Example 135, 7-(3-fluoro-4-(trifluoromethyl)phenyl)-N-(isoquinolin-6-yl)-5-methyl-2-(1-(3-(piperidin-1-yl)propanoyl)piperidin-4-yl)-4,7-dihydropyrazolo[1,5-a]pyrimidine-6-carboxamide] |
| < 50 | < 50 | CC1=C(C(=O)Nc2ccc3cnccc3c2)C(c2ccc(C(F)(F)F)c(F)c2)n2nc(N3CCN(C)CC3)cc2N1 (centres unmarked) [Example 136, 7-(3-Fluoro-4-(trifluoromethyl)phenyl)-N-(isoquinolin-6-yl)-5-methyl-2-(4-methylpiperazin-1-yl)-4,7-dihydropyrazolo[1,5-a]pyrimidine-6-carboxamide] |
